Measured values reported in patent publication US9670211B2, “Aza-oxo-indoles for the treatment and prophylaxis of respiratory syncytial virus infection” (Hoffmann-La Roche Inc., priority 2013, dated 2017).

System: RSV Long strain
Experiment: Viral Cytopathic Effect (CPE) Assay
Assay type: cell-based
Settings: human respiratory syncytial virus, 144 h; RSV Long strain (ATCC), cell viability after 6 days by Cell Counting kit-8
Procedure: Viral Cytopathic Effect (CPE) Assay
To measure anti-RSV activity of compounds, 96-well plates are seeded with 6×10^3 cells per well in Dulbecco's modified Eagle's medium (DMEM) containing 10% fetal bovine serum (FBS). Cells are infected the next day with sufficient RSV Long strain (ATCC) to produce an approximately 80-90% cytopathic effect after 6 days, in the presence of serial half-log diluted compound in a total volume of 200 μL per well. The viability of cells is assessed after 6 days using Cell Counting kit-8 (Dojindo Molecular Technologies). The absorbance at 450 nm and referenced at 630 nm is measured to determine 50% effective concentration (EC50).

Point of comparison: `O=C1N(Cc2nc3cc(Cl)ccc3n2C2C[S+]([O-])C2)c2cnccc2C12CC2` (stereo not drawn) [Example 5, 1′-{[5-Chloro-1-(1-oxidothietan-3-yl)-1H-benzimidazol-2-yl]methyl}spiro[cyclopropane-1,3′-pyrrolo[2,3-c]pyridin]-2′(1′H)-one], EC50 5 nM. Against it:
- O=C1N(Cc2nc3cc(Cl)ccc3n2C2CCS(=O)(=O)C2)c2cnccc2C12CC2 (stereo not drawn) [Example 3-1, 1′-{[5-Chloro-1-(1,1-dioxidotetrahydrothiophen-3-yl)-1H-benzimidazol-2-yl]methyl}spiro[cyclopropane-1,3′-pyrrolo[2,3-c]pyridin]-2′(1′H)-one] — within 1.5-fold, 6 nM
- CC(C)C(=O)N1CC[C@@H](n2c(CN3C(=O)C4(CC4)c4ccncc43)nc3cc(Cl)ccc32)C1 [Example 11, 1′-({5-Chloro-1-[(3R)-1-(2-methylpropanoyl)pyrrolidin-3-yl]-1H-benzimidazol-2-yl}methyl)spiro[cyclopropane-1,3′-pyrrolo[2,3-c]pyridin]-2′(1′H)-one] — 1.7-fold lower, 3 nM
- O=C1CCC(n2c(CN3C(=O)C4(CC4)c4ccncc43)nc3cc(Cl)ccc32)CN1 (stereo not drawn) [Example 7-1, 1′-{[5-Chloro-1-(6-oxopiperidin-3-yl)-1H-benzimidazol-2-yl]methyl}spiro[cyclopropane-1,3′-pyrrolo[2,3-c]pyridin]-2′(1′H)-one] — 2.5-fold lower, 2 nM
- O=C1N(Cc2nc3cc(Cl)ccc3n2[C@H]2C[C@H](O)C2)c2cnccc2C12CC2 [Example 14-2, 1′-{[5-Chloro-1-(trans-3-hydroxycyclobutyl)-1H-benzimidazol-2-yl]methyl}spiro[cyclopropane-1,3′-pyrrolo[2,3-c]pyridin]-2′(1′H)-one] — 6.2-fold lower, 0.8 nM
- CC1(C)[C@H](n2c(CN3C(=O)C4(CC4)c4ccncc43)nc3cc(Cl)ccc32)CCS1(=O)=O (stereo in doubt) [Example 13, 1′-{[5-Chloro-1-(2,2-dimethyl-1,1-dioxidotetrahydrothiophen-3-yl)-1H-benzimidazol-2-yl]methyl}spiro[cyclopropane-1,3′-pyrrolo[2,3-c]pyridin]-2′(1′H)-one] — 79-fold higher, 397 nM
- O=C1N(Cc2nc3cc(Cl)ccc3n2C2CS(=O)(=O)C2)c2cnccc2C12CC2 [Example 4-1, 1′-{[5-Chloro-1-(1,1-dioxidothietan-3-yl)-1H-benzimidazol-2-yl]methyl}spiro[cyclopropane-1,3′-pyrrolo[2,3-c]pyridin]-2′(1′H)-one] — within 1.5-fold, 6.5 nM
- O=C1NCCC1n1c(CN2C(=O)C3(CC3)c3ccncc32)nc2cc(Cl)ccc21 (stereo not drawn) [Example 2-9, 1′-{[5-Chloro-1-(2-oxopyrrolidin-3-yl)-1H-benzimidazol-2-yl]methyl}spiro[cyclopropane-1,3′-pyrrolo[2,3-c]pyridin]-2′(1′H)-one] — 33-fold higher, 164 nM
- CCC1(CC)C(=O)N(Cc2nc3cc(Cl)ccc3n2C2CS(=O)(=O)C2)c2cnccc21 [Example 4-3, 1-{[5-Chloro-1-(1,1-dioxidothietan-3-yl)-1H-benzimidazol-2-yl]methyl}-3,3-diethyl-1,3-dihydro-2H-pyrrolo[2,3-c]pyridin-2-one] — 41-fold higher, 207 nM
- CC(C)(C)OC(=O)N1CCC(n2c(CN3C(=O)C4(CC4)c4ccncc43)nc3cc(Cl)ccc32)C1 (stereo not drawn) [Example 2-15, tert-Butyl 3-{5-chloro-2-[(2′-oxospiro[cyclopropane-1,3′-pyrrolo[2,3-c]pyridin]-1′(2′H)-yl)methyl]-1H-benzimidazol-1-yl}pyrrolidine-1-carboxylate] — 6.2-fold higher, 31 nM
- CS(=O)(=O)[C@H]1C[C@H](n2c(CN3C(=O)C4(CC4)c4ccncc43)nc3cc(Cl)ccc32)C1 [Example 1-2, 1′-({5-Chloro-1-[trans-3-(methylsulfonyl)cyclobutyl]-1H-benzimidazol-2-yl}methyl)spiro[cyclopropane-1,3′-pyrrolo[2,3-c]pyridin]-2′(1′H)-one] — within 1.5-fold, 6 nM
- O=C1N(Cc2nc3cc(Cl)ccc3n2[C@H]2C[C@@H](O)C2)c2cnccc2C12CC2 [Example 14-1, 1′-{[5-Chloro-1-(cis-3-hydroxycyclobutyl)-1H-benzimidazol-2-yl]methyl}spiro[cyclopropane-1,3′-pyrrolo[2,3-c]pyridin]-2′(1′H)-one] — within 1.5-fold, 7 nM
